ChEMBL document CHEMBL3608247, “Human SIRT3 tripeptidic inhibitors containing N(ε)-thioacetyl-lysine” (Bioorg Med Chem Lett, 2015)

Key:
[1] = target: T1, NAD-dependent protein deacetylase sirtuin-1 (Homo sapiens, UniProt Q96EB6); assay: Inhibition of human His6 or GST-tagged SIRT1 after 10 mins by HPLC analysis in presence of beta-NAD
T1 sequence (Q96EB6 whole entry): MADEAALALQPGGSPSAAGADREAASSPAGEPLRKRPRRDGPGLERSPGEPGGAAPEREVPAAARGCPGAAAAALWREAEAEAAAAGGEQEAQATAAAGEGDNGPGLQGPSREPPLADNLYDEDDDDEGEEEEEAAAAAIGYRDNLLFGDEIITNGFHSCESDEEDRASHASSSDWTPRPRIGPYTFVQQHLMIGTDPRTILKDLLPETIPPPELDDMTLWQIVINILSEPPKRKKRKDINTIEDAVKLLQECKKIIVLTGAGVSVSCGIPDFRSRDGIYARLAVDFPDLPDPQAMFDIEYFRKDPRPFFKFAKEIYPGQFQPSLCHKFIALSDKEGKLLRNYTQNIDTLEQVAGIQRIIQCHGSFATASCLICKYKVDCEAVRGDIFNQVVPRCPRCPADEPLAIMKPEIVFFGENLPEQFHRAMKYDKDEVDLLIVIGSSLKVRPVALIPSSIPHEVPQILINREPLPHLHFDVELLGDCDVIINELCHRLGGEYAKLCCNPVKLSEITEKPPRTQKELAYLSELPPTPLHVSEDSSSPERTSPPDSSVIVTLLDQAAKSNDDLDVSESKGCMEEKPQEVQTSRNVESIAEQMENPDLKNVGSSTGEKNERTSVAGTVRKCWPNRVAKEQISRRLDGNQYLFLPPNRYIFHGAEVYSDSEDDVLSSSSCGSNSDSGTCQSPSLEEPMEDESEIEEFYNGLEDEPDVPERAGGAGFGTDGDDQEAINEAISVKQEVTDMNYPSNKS

[2] = target: T2, NAD-dependent protein deacetylase sirtuin-2 (Homo sapiens, UniProt Q8IXJ6); assay: Inhibition of human His6-tagged SIRT2 after 12 mins by HPLC analysis in presence of beta-NAD
T2 sequence (Q8IXJ6 whole entry): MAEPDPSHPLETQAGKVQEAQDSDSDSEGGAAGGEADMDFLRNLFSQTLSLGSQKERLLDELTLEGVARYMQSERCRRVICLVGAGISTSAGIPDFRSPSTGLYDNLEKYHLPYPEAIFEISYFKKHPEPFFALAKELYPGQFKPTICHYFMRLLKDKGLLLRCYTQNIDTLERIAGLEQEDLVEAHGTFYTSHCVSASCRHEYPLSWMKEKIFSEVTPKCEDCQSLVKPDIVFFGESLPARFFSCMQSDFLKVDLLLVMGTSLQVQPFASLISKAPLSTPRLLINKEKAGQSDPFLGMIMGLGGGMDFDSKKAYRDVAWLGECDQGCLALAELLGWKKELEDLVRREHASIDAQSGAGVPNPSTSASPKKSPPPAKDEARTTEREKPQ

[3] = target: T3, NAD-dependent protein deacetylase sirtuin-3, mitochondrial (Homo sapiens, UniProt Q9NTG7); assay: Inhibition of human His6-tagged SIRT3 after 10 mins by HPLC analysis in presence of beta-NAD
T3 sequence (Q9NTG7 whole entry): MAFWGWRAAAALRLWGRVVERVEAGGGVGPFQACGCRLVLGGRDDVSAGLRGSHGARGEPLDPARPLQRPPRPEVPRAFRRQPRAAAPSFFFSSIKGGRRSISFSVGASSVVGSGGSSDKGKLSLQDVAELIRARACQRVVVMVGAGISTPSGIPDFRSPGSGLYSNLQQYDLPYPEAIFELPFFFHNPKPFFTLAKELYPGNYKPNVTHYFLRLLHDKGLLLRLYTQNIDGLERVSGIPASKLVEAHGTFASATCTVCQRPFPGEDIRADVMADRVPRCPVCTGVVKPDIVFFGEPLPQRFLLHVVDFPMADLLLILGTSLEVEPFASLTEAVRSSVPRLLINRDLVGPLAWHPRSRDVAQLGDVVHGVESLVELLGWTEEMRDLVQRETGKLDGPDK

[4] = species: Homo sapiens; assay: Selectivity ratio of IC50 for human His6 or GST-tagged SIRT1 to IC50 for human His6-tagged SIRT3
[5] = species: Homo sapiens; assay: Selectivity ratio of IC50 for human His6-tagged SIRT2 to IC50 for human His6-tagged SIRT3
[6] = target: T1, NAD-dependent protein deacetylase sirtuin-1; assay: Inhibition of human His6 or GST-tagged SIRT1 after 10 mins by Dixon plot analysis in presence of beta-NAD
[7] = target: T2, NAD-dependent protein deacetylase sirtuin-2; assay: Inhibition of human His6-tagged SIRT2 after 12 mins by Dixon plot analysis in presence of beta-NAD
[8] = target: T3, NAD-dependent protein deacetylase sirtuin-3, mitochondrial; assay: Inhibition of human His6-tagged SIRT3 after 10 mins by Dixon plot analysis in presence of beta-NAD
[9] = target: NAD-dependent protein deacylase sirtuin-5, mitochondrial (Homo sapiens, UniProt Q9NXA8); assay: Inhibition of human GST-tagged SIRT5 after 5 mins by HPLC analysis in presence of beta-NAD
NAD-dependent protein deacylase sirtuin-5, mitochondrial, sequence (Q9NXA8 whole entry): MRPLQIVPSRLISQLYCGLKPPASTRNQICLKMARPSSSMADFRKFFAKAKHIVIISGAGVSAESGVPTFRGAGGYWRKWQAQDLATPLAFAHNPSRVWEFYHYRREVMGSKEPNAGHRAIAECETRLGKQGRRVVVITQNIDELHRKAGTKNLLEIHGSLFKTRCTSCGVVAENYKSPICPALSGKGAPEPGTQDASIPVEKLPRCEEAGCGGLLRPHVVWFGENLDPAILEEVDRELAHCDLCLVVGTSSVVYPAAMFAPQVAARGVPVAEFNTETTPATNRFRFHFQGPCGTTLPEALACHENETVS

[10] = target: NAD-dependent protein deacylase sirtuin-6 (Homo sapiens, UniProt Q8N6T7); assay: Inhibition of human GST-tagged SIRT6 after 12 mins by HPLC analysis in presence of beta-NAD
NAD-dependent protein deacylase sirtuin-6, sequence (Q8N6T7 whole entry): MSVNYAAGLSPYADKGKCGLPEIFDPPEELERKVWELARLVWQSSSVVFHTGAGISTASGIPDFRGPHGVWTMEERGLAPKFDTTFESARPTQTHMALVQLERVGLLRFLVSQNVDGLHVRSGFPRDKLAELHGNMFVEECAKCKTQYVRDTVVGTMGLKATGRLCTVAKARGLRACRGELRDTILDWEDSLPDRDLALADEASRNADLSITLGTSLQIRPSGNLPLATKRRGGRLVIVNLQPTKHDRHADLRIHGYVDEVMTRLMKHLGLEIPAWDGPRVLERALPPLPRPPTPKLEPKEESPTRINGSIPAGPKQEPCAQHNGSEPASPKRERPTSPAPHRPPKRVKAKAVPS

SMILES	IC50 [1]	IC50 [2]	IC50 [3]	other results
CC(=O)NC[C@H](NC(=O)[C@H](CCCCNC(C)=S)NC(=O)[C@H](Cc1csc2ccccc12)NC(C)=O)C(N)=O	9.6 µM	8.75 µM	1.75 µM	Ratio IC50 [4]: 5.5; Ratio IC50 [5]: 5
CC[C@H](NC(=O)[C@H](CCCCNC(C)=S)NC(=O)[C@H](CCCCNC(C)=O)NC(C)=O)C(N)=O	1.96 µM	1.41 µM	1.1 µM	
CC(=O)NCCCC[C@H](NC(=O)[C@H](CCCCNC(C)=S)NC(=O)[C@H](CNC(C)=O)NC(C)=O)C(N)=O	6.86 µM	7.76 µM	1 µM	
CC(=O)NCCCC[C@H](NC(=O)[C@H](CCCCNC(C)=S)NC(=O)[C@H](CCc1ccccc1)NC(C)=O)C(N)=O	3.65 µM	5.52 µM		
CC(=O)NCCCC[C@H](NC(C)=O)C(=O)N[C@@H](CCCCNC(C)=S)C(=O)N[C@@H](CCc1ccccc1)C(N)=O	1.45 µM	0.65 µM		
CCCC[C@H](NC(=O)[C@H](CCCCNC(C)=S)NC(=O)[C@H](CCCCNC(C)=O)NC(C)=O)C(N)=O	0.63 µM	5.1 µM		
CC(=O)NC[C@H](NC(=O)[C@H](CCCCNC(C)=S)NC(=O)[C@H](Cc1ccc(-c2ccccc2)cc1)NC(C)=O)C(N)=O	6.6 µM	8.32 µM	1.62 µM	Ratio IC50 [4]: 4.1; Ratio IC50 [5]: 5.1
CC(=O)NCCCC[C@H](NC(C)=O)C(=O)N[C@@H](CCCCNC(C)=S)C(=O)N[C@@H](CNC(C)=O)C(N)=O	2.32 µM	1.51 µM	0.36 µM	
CC(=O)NCCCC[C@H](NC(=O)[C@H](CCCCNC(C)=S)NC(=O)[C@H](Cc1ccc(-c2ccccc2)cc1)NC(C)=O)C(N)=O	3.03 µM	4.5 µM		
CC(=O)NCCCC[C@H](NC(C)=O)C(=O)N[C@@H](CCCCNC(C)=S)C(=O)N[C@@H](Cc1csc2ccccc12)C(N)=O	1.15 µM	2.38 µM	1.4 µM	
CCCC[C@H](NC(C)=O)C(=O)N[C@@H](CCCCNC(C)=S)C(=O)N[C@@H](CCCCNC(C)=O)C(N)=O	2.78 µM	0.81 µM		
CC(=O)NCCCC[C@H](NC(=O)[C@H](CCCCNC(C)=S)NC(=O)[C@H](Cc1csc2ccccc12)NC(C)=O)C(N)=O				IC50 [6]: 14.4 µM; IC50 [7]: 14.5 µM; IC50 [8]: 1.44 µM
CC(=O)NCCCC[C@H](NC(=O)[C@H](CCCCNC(C)=S)NC(=O)[C@H](Cc1ccc2ccccc2c1)NC(C)=O)C(N)=O				IC50 [6]: 12.6 µM; IC50 [7]: 12 µM; IC50 [8]: 1.29 µM
CCC[C@H](NC(=O)[C@H](CCCCNC(C)=S)NC(=O)[C@H](CCCCNC(C)=O)NC(C)=O)C(N)=O	2.85 µM	1.38 µM		
CC(=O)NCCCC[C@H](NC(C)=O)C(=O)N[C@@H](CCCCNC(C)=S)C(=O)N[C@@H](Cc1ccc2ccccc2c1)C(N)=O	0.64 µM	2.26 µM	2.1 µM	
CC(=O)NCCCC[C@H](NC(C)=O)C(=O)N[C@@H](CCCCNC(C)=S)C(=O)N[C@@H](Cc1ccc(-c2ccccc2)cc1)C(N)=O	2.4 µM	3.92 µM	3.2 µM	
CC[C@H](NC(C)=O)C(=O)N[C@@H](CCCCNC(C)=S)C(=O)N[C@@H](CCCCNC(C)=O)C(N)=O	2.13 µM	1.34 µM		
CC(=O)NC[C@H](NC(=O)[C@H](CCCCNC(C)=S)NC(=O)[C@H](CNC(C)=O)NC(C)=O)C(N)=O	6.6 µM	11.9 µM	1.8 µM	Ratio IC50 [4]: 3.7; Ratio IC50 [5]: 6.6
CCC[C@H](NC(C)=O)C(=O)N[C@@H](CCCCNC(C)=S)C(=O)N[C@@H](CCCCNC(C)=O)C(N)=O	10.7 µM	7.71 µM	2.1 µM	
CC(=O)NC[C@H](NC(=O)[C@H](CCCCNC(C)=S)NC(=O)[C@H](Cc1ccc2ccccc2c1)NC(C)=O)C(N)=O				IC50 [6]: 18.9 µM; IC50 [7]: 17.8 µM; IC50 [8]: 1.91 µM; IC50 [9]: 2000 µM; IC50 [10]: 307 µM; Ratio IC50 [4]: 9.9; Ratio IC50 [5]: 9.3
